This is an account of results in US20190022088A1 (RedHill Biopharma Ltd., priority 2017, published 2019).

SMILES strings stand for the structures.

One data set has as its target Human Tryptase-. As to the kind of experiment: Ki of WX-UK1, chromogenic substrate cleavage. The class given is biochemical. As to conditions: Human Tryptase- (isoform character is an image); 37° C., 0.5% BSA, pH=7.4; read-out: Ki (μM) Mean ± SD (n). On the procedure: (§1) Samples of the selected proteases were prepared and characterized biochemically with respect to inhibitory constant (Ki) of inhibition by WX-UK1-1 and affinity (Kd) of the interaction.
Substrate concentrations were kept high in order to stay around 10% turnover per run.

A further data set is described as follows: Solubility. The class given is physicochemical.
A further data set deals with T1, Human Trypsin-3 (Homo sapiens, UniProt P35030).
T1 sequence (P35030 81-304 limits assumed): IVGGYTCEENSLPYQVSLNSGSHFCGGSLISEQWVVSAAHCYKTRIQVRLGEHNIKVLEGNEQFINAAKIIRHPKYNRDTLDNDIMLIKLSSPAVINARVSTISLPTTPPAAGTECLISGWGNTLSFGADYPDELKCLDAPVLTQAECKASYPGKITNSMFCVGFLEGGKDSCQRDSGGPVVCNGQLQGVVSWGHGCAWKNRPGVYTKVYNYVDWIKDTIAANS
The experiment in a line: Ki of WX-UK1, chromogenic substrate cleavage. The class given is biochemical. As to conditions: 37° C., 0.5% BSA, pH=7.4, read-out: Ki (μM) Mean ± SD (n).

Data set [1] addresses T2, trypsin-2 (Homo sapiens, UniProt P07478). As to the kind of experiment: Drug-binding kinetic studies. As to the method: as §1
For the next data set, the system named is implanted tumors. As to conditions: parenterally administered; cited from earlier work.
Data set [2] concerns the target T2, trypsin-2. The experiment in a line: Ki of WX-UK1, chromogenic substrate cleavage. Type of data set: biochemical. As to conditions: 37° C., 0.5% BSA, pH=7.4, read-out: Ki (μM) Mean ± SD (n).
The target of the next data set is Human Trypsin-1 (Homo sapiens, UniProt P07477). As to the kind of experiment: Ki of WX-UK1, chromogenic substrate cleavage. The class given is biochemical. As to conditions: 37° C., 0.5% BSA, pH=7.4, read-out: Ki (μM) Mean ± SD (n).
The next data set has as its target plasmin (Homo sapiens, UniProt P00747). As to conditions: previously shown; cited from earlier work.
Data set [3] concerns the target urokinase type plasminogen activator (uPA) (Homo sapiens, UniProt P00749). As to conditions: previously shown; cited from earlier work.

A word on the Ki: it is a dissociation constant, usually derived from enzyme kinetics or from competition with a known ligand.

T2 sequence (P07478 24-247): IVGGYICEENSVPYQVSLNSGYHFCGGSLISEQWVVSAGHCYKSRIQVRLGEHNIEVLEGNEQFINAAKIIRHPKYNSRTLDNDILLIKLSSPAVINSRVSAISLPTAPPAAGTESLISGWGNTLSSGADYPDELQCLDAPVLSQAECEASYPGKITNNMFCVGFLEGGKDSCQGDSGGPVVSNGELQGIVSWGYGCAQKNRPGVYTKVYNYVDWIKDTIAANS
Sequence of plasmin (P00747 581-810 limits assumed, species assumed): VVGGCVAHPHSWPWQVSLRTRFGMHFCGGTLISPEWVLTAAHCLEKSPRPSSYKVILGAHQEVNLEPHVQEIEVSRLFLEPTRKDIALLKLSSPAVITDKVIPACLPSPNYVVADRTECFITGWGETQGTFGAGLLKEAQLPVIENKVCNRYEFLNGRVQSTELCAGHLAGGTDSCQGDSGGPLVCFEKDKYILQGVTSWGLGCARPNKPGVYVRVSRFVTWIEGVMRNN
Sequence of plasmin (P00747 97-580 partner limits assumed, species assumed): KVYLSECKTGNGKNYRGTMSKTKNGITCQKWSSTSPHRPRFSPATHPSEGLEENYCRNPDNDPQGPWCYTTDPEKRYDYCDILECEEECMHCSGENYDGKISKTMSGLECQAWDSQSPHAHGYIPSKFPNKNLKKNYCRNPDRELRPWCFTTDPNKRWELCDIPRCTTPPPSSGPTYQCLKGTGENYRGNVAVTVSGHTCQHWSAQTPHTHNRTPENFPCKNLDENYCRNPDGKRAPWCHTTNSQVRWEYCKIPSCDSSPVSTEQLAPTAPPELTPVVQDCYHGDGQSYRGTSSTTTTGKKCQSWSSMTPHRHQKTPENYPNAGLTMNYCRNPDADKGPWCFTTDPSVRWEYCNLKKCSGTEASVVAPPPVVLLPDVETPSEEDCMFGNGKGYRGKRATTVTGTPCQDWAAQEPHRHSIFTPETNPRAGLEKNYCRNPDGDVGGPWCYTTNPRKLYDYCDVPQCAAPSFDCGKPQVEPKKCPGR

As to `CCOC(=O)N1CCN(C(=O)C(Cc2cccc(C(=N)N)c2)NS(=O)(=O)c2c(C(C)C)cc(C(C)C)cc2C(C)C)CC1` (stereo not drawn) [WX-UK1, N-α-(2,4,6-triisopropylphenylsulfonyl)-3-amidino-(L)-phenylalanine 4-ethoxycarbonylpiperazide], the Ki was 11 ± 2 µM at Human Tryptase-; approximately 0.019 µM on Human Trypsin-3; approximately 0.075 µM on trypsin-2 [2]; approximately 0.19 µM at Human Trypsin-1; 1.46 to 2.4 µM at plasmin; 0.65 to 0.9 µM in data set [3]. Besides, in the data set “Solubility”, the solubility in water entry is on record as “poor solubility”. Also, the “rate of association with trypsin-2 compared with uPA” value at trypsin-2 [1] is on record as “faster”. For the same compound, the “rate of dissociation from trypsin-2 compared with uPA” value on trypsin-2 [1] was “slower”. For the same compound, the “growth rate of implanted tumors” value with implanted tumors is “reduce the growth rate of implanted tumors”. Moreover, the “invasion into nearby lymph nodes and spreading to distant target organs of metastasis” value with implanted tumors is “inhibit their invasion into nearby lymph nodes and their spreading to distant target organs of metastasis”.
